Broadly, the logP is a log measure of how a compound divides between an organic and an aqueous phase. Low values mean lower lipophilicity, high ones higher lipophilicity. On to `Cc1ccc2c(C)c(C)ccc2c1C`, for which the logP was 4.95.
On to `Cc1cc2c(C)ccc(C)c2cc1C`, for which the log partition coefficient (logP) worked out at 4.74.
The compound `Cc1ccc2cc(C)c(C)cc2c1` gave a log partition coefficient (logP) of 4.7.
On to `Cc1ccc2c(C)cccc2c1`, for which the logP is 4.27.
The figure for `Cc1ccc2cc(C)ccc2c1` is 4.39; for `Cc1cc(C)c2c(C)cccc2c1` it is 4.52.
Next, `Cc1cc(C)c2ccccc2c1C`: 4.49; `Cc1ccc(C)c2ccccc12`: 4.22; `Cc1ccc(C)c2c(C)cccc12`: 4.48.
In turn, `Cc1ccc2ccccc2c1` displayed a logP of 3.96.
For `Cc1ccc2cccc(C)c2c1`, the logP turned out to be 4.19.
`Cc1cccc2c(C)cccc12` displayed a logP of 4.22.
The figure for `Cc1ccc2ccc(C)cc2c1` is 4.37.
As to `Cc1cc(C)c2cc(C)ccc2c1`, the logP was determined as 4.38.
For the compound `Cc1ccc2c(C)ccc(C)c2c1`, the logP is 4.55.
